Patent publication US20220133738A1, “GENOTYPE AND DOSE-DEPENDENT RESPONSE TO AN ASBTI IN PATIENTS WITH BILE SALT EXPORT PUMP DEFICIENCY” (MIRUM PHARMACEUTICALS, INC., priority 2019, published 2022)
Values joined by “and” are separate entries in the source; they are usually repeats but may differ in a detail not shown here. Equal entries are not always repeated.

Tests used:
[1] = system: children with progressive familial intrahepatic cholestasis (PFIC); test: INDIGO phase 2 open-label efficacy and safety study of maralixibat in children with PFIC; format: in vivo, human
Source text: The HRQoL used was the […] QUALITY OF LIFE INVENTORY (PedsQL).

[2] = system: overweight and obese adults; test: Dose-ranging phase 1 clinical study (NCT02475317): fecal bile acid excretion with maralixibat and volixibat; format: in vivo, human; details: for fBA excretion, mean change from baseline: baseline to day 6 and 7
[3] = system: adults with primary sclerosing cholangitis (PSC); test: CAMEO 14-week single-arm open-label phase 2a study of maralixibat in primary sclerosing cholangitis; format: in vivo, human
Protocol: Participants were adults aged 18-80 years with a diagnosis of PSC. PSC diagnosis included a documented history of alkaline phosphatase (ALP) levels greater than 1.5 times above the upper limit of normal, biliary obstruction, and histological findings consistent with PSC diagnosis (if previously biopsied). The study enrolled 27 adults.
Efficacy was assessed by measuring at baseline and throughout the study sBA concentration, serum 7αC4 concentration (a marker of de novo bile acid synthesis), serum aoutotaxin concentration, LDL-C concentration, serum total cholesterol concentration, serum liver enzyme concentrations, and pruritus severity. Pruritus severity was determined by calculating Adult Itch Reported Outcome (ITCHRO) weekly sum scores and average daily scores (mean score over a 7-day period). Participants self-reported the ITCHRO daily on a scale 0-10 (0=no pruritus; 10=most severe pruritus).
Outcomes were assessed in the overall study population and in subgroups of participants (A) with any pruritus at baseline or (B) with an ITCHRO average daily score ≥4 out of 10 at baseline. Efficacy endpoints were based on change from baseline to week 14 or early termination (ET) and were analyzed using paired t-tests or Wilcoxon signed rank tests.

[4] = system: children with Alagille syndrome (ALGS); test: ICONIC phase 2b randomized placebo-controlled drug-withdrawal study with long-term extension of maralixibat in Alagille syndrome; details: for C4, mean: baseline 7.4; for Serum cholesterol, mean: baseline 414.3
Protocol: Children aged 1-18 years with a diagnosis of ALGS and evidence of cholestasis were eligible to enroll in the ICONIC clinical study, see Tables 12-14. During a long-term extension, participants with sBA levels above the upper limit of normal and/or an ITCHRO(OBS) score >1.5 were eligible for the 400 μg/kg BID dose (all participants received the 400 μg/kg BID dose). Inclusion criteria for the ICONIC study included having cholestasis, which was defined as at least one of 1) sBA concentration (total sBA) >3× the upper limit of normal, 2) serum conjugated bilirubin concentration >1 mg/dL, 3) fat-soluble vitamin deficiency not otherwise explained, 4) serum gamma-glutamyl transferase concentration >3× the upper limit of normal, and 3) intractable pruritus explainable only by liver disease. Inclusion criteria also included having significant pruritus, which was defined as an average daily score of >2 on the ITCHRO(OBS) scale for 2 consecutive weeks (0=no pruritus; 4=most severe pruritus). Exclusion criteria included having surgically disrupted enterohepatic circulation, a liver transplant, decompensated cirrhosis, or having any liver disease other than ALGS.
sBA responders were defined as those patients achieving ≥50% reduction from baseline in sBA at week 12 or 18. ITCHRO responders were defined as those patients achieving at least a 1-point reduction from Baseline in weekly morning ITCHRO(OBS) score at week 12 or 18.
In the open label extension, the effect of higher doses was explored by increasing dosage to a maximum of 400 μg/kg BID in eligible participants.
Efficacy assessments were based on changes from baseline in sBA concentration, weekly average ITCHRO(OBS) scores (0, none; 4, most severe), CSS score (0, none; 4 most severe), and Clinician Xanthoma Scale score (0, none; 4, disabling). […] During the long-term extension, efficacy assessments were conducted every 12 weeks.
sBA were measured using a fully validated liquid chromatography-electrospray ionization-mass electrospray (LC-ESI-MS) method using stable-isotope dilution analysis to measure serum concentrations of principal bile acids (cholic, chenodeoxycholic, ursodeoxycholic, deoxycholic acid, lithocholic, and their corresponding glycine and taurine conjugates). […] Calibration standards of individual bile acids were in the range of 50-25,000 ng/mL and Quality Control samples were prepared at concentrations of 100, 500, 1000, 2500, and 20000 ng/mL. The intra- and inter-assay imprecision of the method for individual bile acids measured was within the accepted GLP quality assurance guidelines of <15% coefficient of variance for these QC samples. The lower limit of quantification of the assay was set at 100 ng/mL and the imprecision at this concentration was <20%. The limit of detection of the assay was 5 ng/mL. Total sBA is represented by the sum of the individual bile acid species measured.

[5] = individual participants A-F with ITCHRO daily score ≥4 at baseline, one line per participant
[6] = participants with ITCHRO daily score ≥4 at baseline
[7] = Withdrawal - Week 22, maralixibat group

CCCCC1(CCCC)CS(=O)(=O)c2ccc(N(C)C)cc2[C@@H](c2ccc(OCc3ccc(C[N+]45CCN(CC4)CC5)cc3)cc2)[C@H]1O [maralixibat]
Multi-parameter Responders (n/N) ([1]; Mild PFIC 2 (N = 7)): 1/7 | Multi-parameter Responders (n/N) ([1]; Moderate PFIC 2 (N = 12)): 6/12 | Multi-parameter Responders (%) ([1]; Non-truncating BSEP (N = 19)): (36.8%) | Multi-parameter Responders (n/N) ([1]; Non-truncating BSEP (N = 19), response = >70% reduction or normalization in sBA and >1.0 reduction or <1.0 ITCHRO(OBS)): 7/19 | Multi-parameter Responders (n/N) ([1]; Truncating BSEP (N = 6)): 0/6 | 7αC4:sBA ratio ([1]; high-dose responder, prior to administration of 560 μg/kg/day): 12 times baseline | Response (observed response) ([1]; individual PFIC 2 participants, one line per Subject ID of Table 3, (No reponse [sic] / Rapid complete response / Good response), max dose 280 or 560 μg/kg/day): Rapid (4×) and No (18×) and Good | 7αC4:sBA ratio, mean change from baseline at week 48 ([1]; low-dose responders (range, 5-3982)): 1388 times baseline ratio | 7αC4 concentrations at 48 weeks relative to baseline ([1]; non-responders (range, 0.5-6)): 1.8 × baseline | responders in long-term extension ([1]; patients having an ABCB11 gene with a truncating mutation): no patients | patients with ≥1.0 pt. reduction in ITCHRO(OBS) score ([1]; patients with non-truncating BSEP mutations, FIG. 6): 10/19 | sBA levels Normalized (±≤8.5 μmol/L), n ([1]; responders (n = 6) by week 48): 4 | Response ([1]; subject 016054, moderate PFIC 2, wrapped cell r43-r46 reads 'No response until 560 reached'): No | PedsQL total score, change from baseline to week 48, mean ([1]; week 48): +8.2 | fBA excretion, mean change from baseline ([2]; 10 mg dose (QD), 7 days): 515 µmol | fBA excretion, mean change from baseline ([2]; 20 mg dose (QD), 7 days): 532 µmol | fBA excretion, mean change from baseline ([2]; 50 mg BID, 7 days): 1251 µmol | fBA excretion, mean change from baseline ([2]; 100 mg QD, 7 days): 1144 µmol | fBA excretion, dose dependence ([2]; across tested doses, 7 days): increased in a dose-dependent manner | treatment-emergent adverse events ([2]; all doses, 7 days): mild, and none were serious | Mean serum 7αC4 ([2]; baseline to day 7, greatest change at maralixibat 50 mg BID): increased | Mean sBA levels ([2]; day 7 versus baseline): not elevated | tolerability ([3]; adults with PSC, 14 weeks): well tolerated | participants with worsening of pruritus by >1 point ([3]; baseline to week 14): No participants | Changes in serum total bilirubin, alanine aminotransferase, aspartate aminotransferase, and alkaline phosphatase concentrations ([3]; baseline to week 14/ET): not statistically significant | ItchRO average daily score (0-10 scale), Change from baseline to week 14/ET [3, 5]: −4.6 and −1.7 and −3.7 (2×) and −9.1 and −4.7 | ItchRO average daily score (0-10 scale), Week 14/ET [3, 5]: 1.3 and 5.1 and 3.1 and 2.3 and 0 (2×) | Mean conjugated bilirubin levels, increase ([3]; overall population): 0.19 mg/dL | total cholesterol, mean change ([3]; overall population): -21.2 mg/dL | ITCHRO weekly sum scores, decrease from baseline ([3]; overall population, baseline to week 14/ET, 10 mg/day maintenance): 51% | serum LCL-C concentration, change from baseline ([3]; overall population, SD 17.6): -16.3 mg/dL | serum autotaxin concentration, change from baseline ([3]; overall population, SD 319): -148 ng/mL | Mean levels of 7αC4, increase from baseline ([3]; overall, week 14/ET): 130% | sBA levels, decrease from baseline ([3]; overall, week 14/ET): 38% | 7αC4, mean increase from baseline ([3]; overall, week 14/ET, SD 13.6): 11.1 ng/mL | sBA levels, mean change from baseline ([3]; overall, week 14/ET, SD 31.4): -14.8 µmol/L | Mean levels of 7αC4, increase from baseline [3, 6]: 107% | sBA levels, decrease from baseline [3, 6]: 45% | total cholesterol, mean change [3, 6]: -32.0 mg/dL | ITCHRO weekly sum scores, decrease from baseline ([3]; participants with ITCHRO daily score ≥4 out of 10 at baseline (n=6), week 14/ET): 70% | ITCHRO weekly sum scores, decrease from baseline ([3]; participants with any pruritus at baseline (n=18), week 14/ET): 53% | participants with ITCHRO average daily score improved by >1 point ([3]; week 14/ET): 29.6% | participants with ITCHRO average daily score improved by >3 points ([3]; week 14/ET): 22.2% | sBA, pruritus, and growth after the higher daily dose ([4]; 400 μg/kg BID relative to 400 μg/kg QD): further improvements | weight Z-scores ([4]; 400 μg/kg BID versus 400 μg/kg QD, FIGS. 35-36): dose-dependent increase | Height Z-score, increase from baseline ([4]; ICONIC participants, FIGS. 33-34, SE 0.1): 0.5 | ItchRO (Obs) responders, Decrease from baseline ≥1 ([4]; Open-label Week 18): 67.7% | ItchRO (Obs) responders, Decrease from baseline ≥1.25 ([4]; Open-label Week 18): 58.1% | ItchRO (Obs) responders, Decrease from baseline ≥1.5 ([4]; Open-label Week 18): 51.6% | ItchRO (Obs) responders, Decrease from baseline ≥1 ([4]; Open-label Week 48): 72.4% | ItchRO (Obs) responders, Decrease from baseline ≥1.25 ([4]; Open-label Week 48): 58.6% | ItchRO (Obs) responders, Decrease from baseline ≥1.5 ([4]; Open-label Week 48): 51.7% | C4, mean ([4]; Week 48, n = 15): 20.4 ng/mL | Serum cholesterol, mean ([4]; Week 48, n = 15): 340.3 mg/dL | C4, mean ([4]; Week 191, n = 15): 30.4 ng/mL | Serum cholesterol, mean ([4]; Week 191, n = 15): 277.5 mg/dL | ItchRO (Obs) responders, Decrease from baseline ≥1 [4, 7]: 53.8% | ItchRO (Obs) responders, Decrease from baseline ≥1.25 [4, 7]: 46.2% | ItchRO (Obs) responders, Decrease from baseline ≥1.5 [4, 7]: 23.1% | study days across participants with minimal or no pruritus (ITCHRO(OBS)≤1) ([4]; after 98 weeks): over 89% | Clinician xanthoma scale scores ([4]; all participants by week 48 (p<0.01)): improved significantly
